{
  "source": "ChEMBL document CHEMBL1150587",
  "about": "“Evaluation of the potential cancer chemotherapeutic efficacy of natural product isolates employing in vivo hollow fiber tests” (J Nat Prod, 2002)",
  "key": {"[1]": {"test_system": "SW626", "assay": "Growth inhibition of human SW626 cells implanted intraperitoneally to NCr nu/nu mouse at 128 to 512 umol/kg, ip administered from day 3 to 6 after implantation measured on day 7 by MTT-based hollow-fiber test", "type": "functional"}, "[2]": {"test_system": "SW626", "assay": "Growth inhibition of human SW626 cells implanted subcutaneously to NCr nu/nu mouse at 128 to 512 umol/kg, ip administered from day 3 to 6 after implantation measured on day 7 by MTT-based hollow-fiber test", "type": "functional"}, "[3]": {"test_system": "Mus musculus", "assay": "Toxicity in NCr nu/nu mouse subcutaneously implanted with human SW626 cells assessed as body weight change at 128 to 512 umol/kg, ip administered from day 3 to 6 after implantation measured on day 7", "type": "organism-based", "settings": "in vivo"}, "[4]": {"test_system": "SK-MEL-2", "assay": "Cytotoxicity against human SK-MEL-2 cells after 72 hrs by SRB assay", "type": "functional, cell-based", "settings": "SK-MEL-2, 72 h"}, "[5]": {"test_system": "P388", "assay": "Cytotoxicity against mouse P388 cells after 72 hrs by SRB assay", "type": "functional, cell-based", "settings": "P388, 72 h"}, "[6]": {"test_system": "MCF7", "assay": "Cytotoxicity against human MCF7 cells after 72 hrs by SRB assay", "settings": "MCF7, 72 h"}, "[7]": {"test_system": "LNCaP", "assay": "Cytotoxicity against human LNCAP cells after 72 hrs by SRB assay", "type": "functional, cell-based"}, "[8]": {"test_system": "Lu1", "assay": "Cytotoxicity against human Lu1 cells after 72 hrs by SRB assay", "type": "functional, cell-based", "settings": "Lu1, 72 h"}, "[9]": {"assay": "Cytotoxicity against human KBV1 cells after 72 hrs by SRB assay", "type": "functional, cell-based", "settings": "KB-V1, 72 h"}, "[10]": {"test_system": "KB", "assay": "Cytotoxicity against human KB cells after 72 hrs by SRB assay", "type": "functional, cell-based"}, "[11]": {"test_system": "Col2", "assay": "Cytotoxicity against human Col2 cells after 72 hrs by SRB assay", "type": "functional, cell-based", "settings": "Col2, 72 h"}, "[12]": {"assay": "Cytotoxicity against human BC1 cells after 72 hrs by SRB assay", "settings": "BC1, 72 h"}, "[13]": {"test_system": "SW626", "assay": "Cytotoxicity against human SW626 cells after 72 hrs by SRB assay", "type": "functional, cell-based", "settings": "SW626, 72 h"}},
  "data": [
    {"smiles": "CC1(C)CCC2=C(O1)C(=O)c1ccccc1C2=O", "note": "[ALPHA-LAPACHONE]", "values": [
      {"measurement": "inhibition (INH)", "setting": "[1]", "result": 0, "unit": "%"},
      {"measurement": "inhibition (INH)", "setting": "[2]", "result": 10.3, "unit": "%"},
      {"measurement": "Activity", "setting": "[3]", "result": 0.3, "unit": "g"},
      {"measurement": "IC50", "setting": "[4]", "result": 7.9, "unit": "µM"},
      {"measurement": "IC50", "setting": "[5]", "result": 0.8, "unit": "µM"},
      {"measurement": "IC50", "setting": "[6]", "result": 38, "unit": "µM"},
      {"measurement": "IC50", "setting": "[7]", "result": 29.3, "unit": "µM"},
      {"measurement": "IC50", "setting": "[8]", "result": 21.9, "unit": "µM"},
      {"measurement": "IC50", "setting": "[9]", "result": 34.3, "unit": "µM"},
      {"measurement": "IC50", "setting": "[10]", "result": 53.7, "unit": "µM"},
      {"measurement": "IC50", "setting": "[11]", "result": 40.9, "unit": "µM"},
      {"measurement": "IC50", "setting": "[12]", "result": 27.7, "unit": "µM"},
      {"measurement": "IC50", "setting": "[13]", "result": 12.4, "unit": "µM"}
    ]}
  ]
}
